Results from patent US20260258038A1 (priority 2023, published 2026).

Assays:
Phytophthora infestans = assay: whole plant or invertebrate; assay type: in vivo; settings: in Solanum lycopersicum, foliar, read-out: control of Phytophthora infestans (percent disease control compared to untreated)
Plasmopara viticola = assay: whole plant or invertebrate; assay type: in vivo; settings: foliar, read-out: control of Plasmopara viticola (percent disease control compared to untreated)
Pythium ultimum = Pythium ultimum / liquid culture (seedling damping off); assay type: cell-based; settings: Globisporangium ultimum, liquid culture in PDB, 24° C., 2-3 days after application, read-out: control of Pythium ultimum (inhibition of growth, photometric)
Method: Pythium ultimum/Liquid Culture (Seedling Damping Off)
Mycelia fragments and oospores of a newly grown liquid culture of the fungus are directly mixed into nutrient broth (PDB potato dextrose broth). After placing a (DMSO) solution of test compound into a microtiter plate (96-well format), the nutrient broth containing the fungal mycelia/spore mixture is added. The test plates are incubated at 24° C. and the inhibition of growth is determined photometrically 2-3 days after application.

COC(=O)Nc1ccc(-c2cnc3c(C)cc(N(C)C(=O)c4ccc(F)c(F)c4)cn23)cn1 [Compound 12, methyl N-[5-[6-[(3,4-difluorobenzoyl)-methyl-amino]-8-methyl-imidazo[1,2-a]pyridin-3-yl]-2-pyridyl]carbamate]
≥ 80%: pest or weed control at 200 ppm (Phytophthora infestans) | pest or weed control at 200 ppm (Plasmopara viticola) | inhibition at 20 ppm (Pythium ultimum)

COC(=O)Nc1ccc(-c2cnc3c(C)cc(N(C)C(=O)c4ccc(F)cc4F)cn23)cn1 [Compound 54, methyl N-[5-[6-[(2,4-difluorobenzoyl)-methyl-amino]-8-methyl-imidazo[1,2-a]pyridin-3-yl]-2-pyridyl]carbamate]
≥ 80%: pest or weed control at 200 ppm (Phytophthora infestans) | pest or weed control at 200 ppm (Plasmopara viticola) | inhibition at 20 ppm (Pythium ultimum)

COC(=O)Nc1ccc(-c2cnc3c(C)cc(N(C)C(=O)c4ccc(F)cc4)cn23)cn1 [Compound 45, methyl N-[5-[6-[(4-fluorobenzoyl)-methyl-amino]-8-methyl-imidazo[1,2-a]pyridin-3-yl]-2-pyridyl]carbamate]
≥ 80%: pest or weed control at 200 ppm (Phytophthora infestans) | pest or weed control at 200 ppm (Plasmopara viticola) | inhibition at 20 ppm (Pythium ultimum)

COC(=O)Nc1ccc(-c2cnc3c(C)cc(N(C)C(=O)c4ccc(Cl)c(C)c4)cn23)cn1 [Compound 41, methyl N-[5-[6-[(4-chloro-3-methyl-benzoyl)-methyl-amino]-8-methyl-imidazo[1,2-a]pyridin-3-yl]-2-pyridyl]carbamate]
≥ 80%: pest or weed control at 200 ppm (Phytophthora infestans) | pest or weed control at 200 ppm (Plasmopara viticola) | inhibition at 20 ppm (Pythium ultimum)

COC(=O)Nc1ccc(-c2cnc3c(C)cc(N(C)C(=O)c4ccc(F)c(OC)c4)cn23)cn1 [Compound 13, methyl N-[5-[6-[(4-fluoro-3-methoxy-benzoyl)-methyl-amino]-8-methyl-imidazo[1,2-a]pyridin-3-yl]-2-pyridyl]carbamate]
≥ 80%: pest or weed control at 200 ppm (Phytophthora infestans) | pest or weed control at 200 ppm (Plasmopara viticola) | inhibition at 20 ppm (Pythium ultimum)

COC(=O)Nc1ccc(-c2cnc3c(C)cc(N(C)C(=O)c4ccc(Cl)c(OC)c4)cn23)cn1 [Compound 1, methyl N-[5-[6-[(4-chloro-3-methoxy-benzoyl)-methyl-amino]-8-methyl-imidazo[1,2-a]pyridin-3-yl]-2-pyridyl]carbamate]
≥ 80%: pest or weed control at 200 ppm (Phytophthora infestans) | pest or weed control at 200 ppm (Plasmopara viticola) | inhibition at 20 ppm (Pythium ultimum)

COC(=O)Nc1ccc(-c2cnc3ccc(N(C)C(=O)c4ccc(F)c(OC)c4)cn23)cn1 [Compound 26, methyl N-[5-[6-[(4-fluoro-3-methoxy-benzoyl)-methyl-amino]imidazo[1,2-a]pyridin-3-yl]-2-pyridyl]carbamate]
≥ 80%: pest or weed control at 200 ppm (Phytophthora infestans) | pest or weed control at 200 ppm (Plasmopara viticola) | inhibition at 20 ppm (Pythium ultimum)

CCc1cc(N(C)C(=O)c2ccc(F)c(OC)c2)cn2c(-c3ccc(NC(=O)OC)nc3)cnc12 [Compound 57, methyl N-[5-[8-ethyl-6-[(4-fluoro-3-methoxy-benzoyl)-methyl-amino]imidazo[1,2-a]pyridin-3-yl]-2-pyridyl]carbamate]
≥ 80%: pest or weed control at 200 ppm (Phytophthora infestans) | pest or weed control at 200 ppm (Plasmopara viticola) | inhibition at 20 ppm (Pythium ultimum)

COC(=O)Nc1ccc(-c2cnc3c(C)cc(N(C)C(=O)c4ccc(C#N)c(OC)c4)cn23)cn1 [Compound 5, methyl N-[5-[6-[(4-cyano-3-methoxy-benzoyl)-methyl-amino]-8-methyl-imidazo[1,2-a]pyridin-3-yl]-2-pyridyl]carbamate]
≥ 80%: pest or weed control at 200 ppm (Phytophthora infestans) | pest or weed control at 200 ppm (Plasmopara viticola) | inhibition at 20 ppm (Pythium ultimum)

COC(=O)Nc1ccc(-c2cnc3c(C4CC4)cc(N(C)C(=O)c4ccc(F)c(OC)c4)cn23)cn1 [Compound 56, methyl N-[5-[8-cyclopropyl-6-[(4-fluoro-3-methoxy-benzoyl)-methyl-amino]imidazo[1,2-a]pyridin-3-yl]-2-pyridyl]carbamate]
≥ 80%: pest or weed control at 200 ppm (Phytophthora infestans) | pest or weed control at 200 ppm (Plasmopara viticola) | inhibition at 20 ppm (Pythium ultimum)

COC(=O)Nc1ccc(-c2cnc3c(C)cc(N(C)C(=O)c4cccc(OC)c4)cn23)cn1 [Compound 53, methyl N-[5-[6-[(3-methoxybenzoyl)-methyl-amino]-8-methyl-imidazo[1,2-a]pyridin-3-yl]-2-pyridyl]carbamate]
≥ 80%: pest or weed control at 200 ppm (Phytophthora infestans) | pest or weed control at 200 ppm (Plasmopara viticola) | inhibition at 20 ppm (Pythium ultimum)

COC(=O)Nc1ccc(-c2cnc3c(C)cc(N(C)C(=O)c4ccc(C#N)cc4)cn23)cn1 [Compound 47, methyl N-[5-[6-[(4-cyanobenzoyl)-methyl-amino]-8-methyl-imidazo[1,2-a]pyridin-3-yl]-2-pyridyl]carbamate]
≥ 80%: pest or weed control at 200 ppm (Phytophthora infestans) | pest or weed control at 200 ppm (Plasmopara viticola) | inhibition at 20 ppm (Pythium ultimum)
